Laboratory results from patent publication US10851412B2, “Cell potency assay for therapeutic potential” (FATE THERAPEUTICS, INC., priority 2013, dated 2020).

System: Human umbilical cord blood
Test: Cell potency assay: real-time PCR signature gene expression score of treated cord blood
Format: cell-based
Experimental: Human umbilical cord blood was treated ex vivo with 16,16, dimethyl prostaglandin E2 (dmPGE2) prior to transplantation. Real-time PCR transcript quantitation of gene expression from the treated cord blood cells was used to determine the therapeutic potential of the cells. RNA was extracted from an aliquot (100 uL) of the treated cord blood cells using the PicoPure RNA Isolation kit (Life Technologies) using the manufacturer's recommended protocol. Total RNA was quantified using the Nanodrop 2000 Spectrophotometer (Thermo Scientific). Complimentary DNA (cDNA) was reverse transcribed from 50 ng of total RNA using the High-Capacity cDNA Reverse Transcription Kit (Life Technologies).
Quantitative PCR was performed in triplicate for each gene in the amplified cDNA using StepOne Plus (Applied Biosystems) and Taqman gene expression assays (Life Technologies) and 40 cycles of real-time PCR. Results of the real-time PCR were analyzed using the StepOne Software v2.1 analysis package (Applied Biosystems). Expression values of the transcripts were normalized to the Taqman gene expression average for the housekeeping genes, GAPDH and HPRT1, to determine the relative expression levels (ΔCt values). […]

CCCCC(C)(C)[C@H](O)/C=C/[C@H]1[C@H](O)CC(=O)[C@@H]1C/C=C\CCCC(=O)O [dmPGE2, 16,16, dimethyl prostaglandin E2]
gene expression in the group of signature genes (real-time PCR) (human umbilical cord blood after a two hour treatment): Increased gene expression | gene expression score (standardized Euclidean distance model vs training set) (human umbilical cord blood treated ex vivo, about two hours at 37° C. with 10 μM dmPGE2, test samples n=10, mean +/- SD, positive scores cluster with samples having therapeutic potential): 16.8+/−2.2
